Results on 14 compounds are retold here after patent publication US9309242B2, “Substituted pyrido[2,3-b]pyrazines as FGFR kinase inhibitors” (priority 2011, dated 2016).

For one data set, the target named is FGFR1 (h) (Homo sapiens, UniProt P11362). Nature of the data set: FGFR1 (enzymatic assay), TR-FRET. The note with it: read-out: FGFR 1 pIC50 (converted). Type of data set: biochemical. (Time-resolved FRET reads energy transfer from a long-lived donor to a nearby acceptor.)
The target in a further data set is FGFR3 (h) (Homo sapiens, UniProt P22607). The experiment in a line: FGFR3 (enzymatic assay), TR-FRET. In kind it is biochemical. The note with it: read-out: FGFR 3 pIC50 (converted). From the text:
Time-Resolved Fluorescence Resonance Energy Transfer (TR-FRET) signal (ex340 nm.

A further data set concerns the target FGFR4 (h) (Homo sapiens, UniProt P22455). The experiment in a line: FGFR4 (enzymatic assay), TR-FRET. In kind it is biochemical. The following applies: FGFR 4 pIC50, enzymatic assay.
Data set [1] concerns Ba/F3-FGFR1-transfected cells. The experiment in a line: Ba/F3-FGFR1 (plus IL3) cellular proliferation assay, counterscreen with 10 ng/ml murine IL3. The note with it: plus IL3 (10 ng/ml murine IL3, counterscreen); read-out: BAF3-FGFR1 (PLUS IL3) pIC50 (converted). Type of data set: cell-based. Put shortly: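 Proliferation read-out: resazurin-based Alamar Blue fluorescence (540/590 nm) after 4 h, following 24 h compound treatment of 20000 Ba/F3-FGFR1 cells per well in 10% FBS RPMI at 37° C. IL3 counterscreen used the same protocol plus 10 ng/ml murine IL3.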
On the technique in general: The purpose of a counterscreen is to sort out artefacts and off-target activity.

Data set [2] concerns the target T1, Ba/F3-FGFR3-transfected cells (Homo sapiens, UniProt P22607).
T1 construct: BAF3-FGFR3 (MIN IL3) pIC50; other: minus IL3
Nature of the data set: Ba/F3-FGFR3 (minus IL3) cellular proliferation assay, Alamar Blue. Type of data set: cell-based. Put shortly:
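Ba/F3 cells transfected with FGFR3 were seeded at 20000 cells/well in phenol red-free RPMI-1640 with 10% FBS over compound in DMSO and kept 24 hours at 37° C, 5% CO2. Alamar Blue (resazurin) was then added for 4 hours and fluorescence read at ex 540/em 590 nm. The counterscreen repeated this with 10 ng/ml murine IL3.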

A word on the melting point: it is the temperature of the solid-liquid transition.

Sequence of FGFR3 (h) (P22607 23-806): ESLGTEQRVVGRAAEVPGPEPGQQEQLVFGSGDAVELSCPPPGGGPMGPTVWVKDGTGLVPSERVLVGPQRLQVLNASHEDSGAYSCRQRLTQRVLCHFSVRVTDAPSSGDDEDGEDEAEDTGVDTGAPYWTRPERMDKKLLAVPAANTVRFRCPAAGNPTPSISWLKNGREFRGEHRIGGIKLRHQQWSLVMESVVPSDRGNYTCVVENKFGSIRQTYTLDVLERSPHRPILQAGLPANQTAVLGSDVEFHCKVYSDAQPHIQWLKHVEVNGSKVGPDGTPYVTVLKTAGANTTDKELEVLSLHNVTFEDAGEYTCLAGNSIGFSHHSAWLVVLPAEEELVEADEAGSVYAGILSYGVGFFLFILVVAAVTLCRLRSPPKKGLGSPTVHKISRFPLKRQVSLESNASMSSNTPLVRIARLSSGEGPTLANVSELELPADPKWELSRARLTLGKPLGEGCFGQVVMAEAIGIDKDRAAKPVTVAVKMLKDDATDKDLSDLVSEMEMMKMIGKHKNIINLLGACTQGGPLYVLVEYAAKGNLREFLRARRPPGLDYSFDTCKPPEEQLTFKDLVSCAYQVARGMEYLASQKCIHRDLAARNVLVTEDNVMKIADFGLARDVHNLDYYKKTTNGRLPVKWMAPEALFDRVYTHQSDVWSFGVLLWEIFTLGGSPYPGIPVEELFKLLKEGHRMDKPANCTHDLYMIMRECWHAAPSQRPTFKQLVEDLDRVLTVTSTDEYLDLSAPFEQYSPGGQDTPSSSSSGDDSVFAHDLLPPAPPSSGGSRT
Sequence of FGFR4 (h) (P22455 22-802): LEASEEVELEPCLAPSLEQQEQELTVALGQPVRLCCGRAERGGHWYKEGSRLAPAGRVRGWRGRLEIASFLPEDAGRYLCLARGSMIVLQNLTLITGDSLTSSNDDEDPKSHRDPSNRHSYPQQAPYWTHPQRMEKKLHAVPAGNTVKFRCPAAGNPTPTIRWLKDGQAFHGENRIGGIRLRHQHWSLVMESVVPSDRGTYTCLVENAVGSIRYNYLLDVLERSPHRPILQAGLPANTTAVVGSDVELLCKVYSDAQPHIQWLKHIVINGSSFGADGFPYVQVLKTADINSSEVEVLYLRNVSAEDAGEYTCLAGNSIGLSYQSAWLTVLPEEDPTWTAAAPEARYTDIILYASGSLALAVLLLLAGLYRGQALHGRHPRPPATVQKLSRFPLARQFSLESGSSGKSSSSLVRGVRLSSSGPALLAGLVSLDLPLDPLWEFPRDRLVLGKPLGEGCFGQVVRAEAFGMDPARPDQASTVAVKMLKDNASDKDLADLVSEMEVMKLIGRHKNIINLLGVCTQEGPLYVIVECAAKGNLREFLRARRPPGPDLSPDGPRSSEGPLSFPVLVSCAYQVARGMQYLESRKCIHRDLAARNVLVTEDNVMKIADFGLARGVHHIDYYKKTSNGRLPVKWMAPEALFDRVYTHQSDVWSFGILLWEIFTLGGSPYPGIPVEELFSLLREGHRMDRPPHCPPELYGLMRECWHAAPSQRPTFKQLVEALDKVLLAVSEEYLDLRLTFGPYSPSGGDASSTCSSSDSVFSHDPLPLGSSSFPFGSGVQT
T1 sequence (P22607 whole entry, change not shown): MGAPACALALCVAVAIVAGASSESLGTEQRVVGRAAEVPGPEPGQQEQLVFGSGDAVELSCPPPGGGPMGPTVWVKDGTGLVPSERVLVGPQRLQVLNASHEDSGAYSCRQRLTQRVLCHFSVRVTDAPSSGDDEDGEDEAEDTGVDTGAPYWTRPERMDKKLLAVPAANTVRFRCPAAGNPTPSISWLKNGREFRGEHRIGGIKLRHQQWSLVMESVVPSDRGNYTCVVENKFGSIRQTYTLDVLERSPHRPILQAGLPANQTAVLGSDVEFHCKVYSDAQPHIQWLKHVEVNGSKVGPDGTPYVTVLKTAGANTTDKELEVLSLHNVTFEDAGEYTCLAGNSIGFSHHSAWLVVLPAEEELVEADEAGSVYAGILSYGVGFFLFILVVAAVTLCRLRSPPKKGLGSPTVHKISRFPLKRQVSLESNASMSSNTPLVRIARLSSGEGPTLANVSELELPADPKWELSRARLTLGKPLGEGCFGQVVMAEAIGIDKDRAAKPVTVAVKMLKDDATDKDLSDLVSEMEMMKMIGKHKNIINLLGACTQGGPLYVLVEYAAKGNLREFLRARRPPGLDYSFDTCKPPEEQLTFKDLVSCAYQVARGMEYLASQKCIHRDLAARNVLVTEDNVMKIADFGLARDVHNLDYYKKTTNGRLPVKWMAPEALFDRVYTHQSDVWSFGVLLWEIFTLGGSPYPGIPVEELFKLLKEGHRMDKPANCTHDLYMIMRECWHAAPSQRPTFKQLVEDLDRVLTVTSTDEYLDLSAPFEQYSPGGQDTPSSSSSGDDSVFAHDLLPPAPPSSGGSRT
Sequence of FGFR1 (h) (P11362 22-822): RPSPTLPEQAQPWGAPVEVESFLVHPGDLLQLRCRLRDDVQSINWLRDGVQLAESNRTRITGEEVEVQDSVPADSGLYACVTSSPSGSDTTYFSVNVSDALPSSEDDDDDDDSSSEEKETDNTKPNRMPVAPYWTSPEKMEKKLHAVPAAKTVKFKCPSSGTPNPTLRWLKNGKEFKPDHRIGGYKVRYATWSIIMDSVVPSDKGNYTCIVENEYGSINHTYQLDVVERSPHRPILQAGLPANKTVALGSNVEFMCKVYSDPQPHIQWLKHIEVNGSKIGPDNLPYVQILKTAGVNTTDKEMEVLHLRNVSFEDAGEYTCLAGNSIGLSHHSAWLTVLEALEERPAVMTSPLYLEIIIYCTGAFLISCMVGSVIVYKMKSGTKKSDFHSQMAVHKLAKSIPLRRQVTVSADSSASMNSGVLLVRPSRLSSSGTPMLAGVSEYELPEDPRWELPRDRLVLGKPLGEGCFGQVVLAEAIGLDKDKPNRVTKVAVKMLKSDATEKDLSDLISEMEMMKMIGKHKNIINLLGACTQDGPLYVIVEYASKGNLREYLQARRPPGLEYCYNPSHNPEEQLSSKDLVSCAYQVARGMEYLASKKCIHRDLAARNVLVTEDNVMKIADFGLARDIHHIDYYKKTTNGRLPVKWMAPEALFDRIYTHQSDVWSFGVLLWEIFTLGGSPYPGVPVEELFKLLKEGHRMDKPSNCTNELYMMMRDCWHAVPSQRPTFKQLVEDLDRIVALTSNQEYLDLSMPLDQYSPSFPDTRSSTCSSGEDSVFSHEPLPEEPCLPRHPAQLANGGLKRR

As for `COc1cc(OC)c(F)c(N(C)c2ccc3ncc(-c4cnn(C)c4)nc3n2)c1F` (single isomer, unassigned) [Compound 254], the melting point turned out to be 210 °C. In addition, the IC50 at FGFR1 (h) is 0.468 nM. The IC50 at FGFR3 (h) was 0.437 nM. This compound showed an IC50 at FGFR4 (h) of 1 nM. In addition, the IC50 in data set [1] was > 10000 nM. In addition, the “BAF3-FGFR3 (MIN IL3) pIC50” value in data set [2] is given as 8.08.
For the compound `COc1cc(OC)c(F)c(/N=c2\ccc3ncc(-c4cnn(C)c4)nc3n2C)c1F` (single isomer, unassigned) [Compound 255], the melting point came to 199 °C. For the same compound, the IC50 at FGFR1 (h) was 0.214 nM. Further, the IC50 on FGFR3 (h) is 0.363 nM. Besides, the IC50 against FGFR4 (h) was 0.513 nM. Moreover, the IC50 in data set [1] is > 10000 nM. Also, the “BAF3-FGFR3 (MIN IL3) pIC50” value in data set [2] is given as 8.38.
Consider `COc1cc(OC)cc(N(CCS(C)(=O)=O)c2ccc3ncc(-c4cnn(CCS(C)(=O)=O)c4)nc3n2)c1` [Compound 275], for which the melting point came out at 172 °C. On FGFR1 (h), the IC50 was 5.89 nM. The IC50 on FGFR3 (h) was 3.39 nM. Moreover, at FGFR4 (h), the IC50 was 12 nM. For the same compound, the IC50 in data set [1] was > 10000 nM. The “BAF3-FGFR3 (MIN IL3) pIC50” value in data set [2] came to 5.80.
The compound `COCC(O)Cn1/c(=N/c2cc(OC)cc(OC)c2F)ccc2ncc(-c3cnn(C)c3)nc21` (single isomer, unassigned) [Compound 60] had a melting point of 114 °C. The IC50 at FGFR1 (h) was 0.741 nM. The IC50 at FGFR3 (h) is 0.525 nM. The compound further gave an IC50 at FGFR4 (h) of 0.724 nM. The IC50 in data set [1] is > 10000 nM. In addition, in data set [2], the “BAF3-FGFR3 (MIN IL3) pIC50” value is 8.15.
For the compound `CNCCn1ccnc1CN(c1ccc2ncc(-c3cnn(C)c3)nc2n1)c1cc(OC)cc(OC)c1F` [Compound 289], the melting point turned out to be 92 °C. Moreover, the IC50 on FGFR1 (h) was 4.37 nM. Further, the IC50 at FGFR3 (h) is 12.9 nM. On FGFR4 (h), the IC50 was 57.5 nM. In data set [1], the IC50 was > 10000 nM. Further, the “BAF3-FGFR3 (MIN IL3) pIC50” value in data set [2] was determined as 6.92.
Regarding `COc1cc(OC)c(F)c(N(CC(O)COC(C)C)c2ccc3ncc(-c4cnn(CC(O)COC(C)C)c4)nc3n2)c1` (single isomer, unassigned) [Compound 252], the melting point stood at 60 °C. Also, the IC50 at FGFR1 (h) was 1.95 nM. Also, the IC50 at FGFR3 (h) is 4.07 nM. In addition, the IC50 against FGFR4 (h) was 5.13 nM. For the same compound, the IC50 in data set [1] was > 10000 nM. Also, the “BAF3-FGFR3 (MIN IL3) pIC50” value in data set [2] worked out at 7.42.
`COc1cc(OC)c(F)c(/N=c2\ccc3ncc(-c4cnn(C)c4)nc3n2CC2CC2)c1F` (single isomer, unassigned) [Compound 267] had a melting point of 195 °C. Further, the IC50 on FGFR1 (h) was 0.977 nM. In addition, at FGFR3 (h), the IC50 was 2.4 nM. The compound also gave an IC50 against FGFR4 (h) of 1.48 nM. Moreover, the IC50 in data set [1] is > 10000 nM. In addition, the “BAF3-FGFR3 (MIN IL3) pIC50” value in data set [2] turned out to be 8.16.
`COc1cc(OC)cc(N(Cc2nnc(NCCO)o2)c2ccc3ncc(-c4cnn(C)c4)nc3n2)c1` [Compound 282] displayed a melting point of 104 °C. In addition, the IC50 on FGFR1 (h) is 33.1 nM. The IC50 at FGFR3 (h) is 25.7 nM. This compound gave an IC50 on FGFR4 (h) of 105 nM. The IC50 in data set [1] is > 10000 nM. In addition, the “BAF3-FGFR3 (MIN IL3) pIC50” value in data set [2] is given as <5.
Compound `CNC(=O)c1cc(F)cc(N(Cc2ncc[nH]2)c2ccc3ncc(-c4cnn(C)c4)nc3n2)c1` [Compound 261] registered a melting point of 180 °C. Also, the IC50 on FGFR1 (h) is 1.48 nM. Also, at FGFR3 (h), the IC50 is 1.91 nM. Also, on FGFR4 (h), the IC50 is 6.03 nM. Also, the IC50 in data set [1] is > 10000 nM. The “BAF3-FGFR3 (MIN IL3) pIC50” value in data set [2] is given as ~7.74.
For `COc1cc(OC)cc(N(CC(C)(C)O)c2ccc3ncc(-c4cnn(C)c4)nc3n2)c1` [Compound 276], the IC50 on FGFR1 (h) is 14.5 nM; on FGFR3 (h) it was 8.32 nM; against FGFR4 (h) it was 69.2 nM; in data set [1] it was > 10000 nM. Also, in data set [2], the “BAF3-FGFR3 (MIN IL3) pIC50” value was 6.41.
Take `COc1cc(/N=c2\ccc3ncc(-c4cnn(C)c4)nc3n2CC(C)(C)O)c(F)c(OC)c1` [Compound 246]: the IC50 on FGFR1 (h) is 0.603 nM; on FGFR3 (h) it was 0.794 nM; on FGFR4 (h), 2.09 nM; in data set [1] it was > 10000 nM. For the same compound, the “BAF3-FGFR3 (MIN IL3) pIC50” value in data set [2] was 7.53.
With `COc1cc(OC)c(F)c(N(CCS(C)(=O)=O)c2ccc3ncc(-c4cnn(CCS(C)(=O)=O)c4)nc3n2)c1` [Compound 266], the melting point came to 180 °C. Besides, the IC50 on FGFR1 (h) was 1.45 nM. For the same compound, the IC50 at FGFR3 (h) was 1.7 nM. The compound also showed an IC50 against FGFR4 (h) of 4.27 nM. Besides, the IC50 in data set [1] was > 10000 nM. Moreover, the “BAF3-FGFR3 (MIN IL3) pIC50” value in data set [2] was 6.35.
With `COc1cc(OC)c(F)c(N(Cc2ncc[nH]2)c2ccc3ncc(N4C[C@@H](C)N[C@@H](C)C4)nc3n2)c1` [Compound 259], the IC50 at FGFR1 (h) is 2.09 nM; at FGFR3 (h), 4.57 nM; on FGFR4 (h), 28.2 nM; in data set [1] it was > 10000 nM. Moreover, the “BAF3-FGFR3 (MIN IL3) pIC50” value in data set [2] came to 7.18.
Taken in the same sequence, the figures for `COc1cc(OC)cc(N(CCNC2COC2)c2ccc3ncc(-c4cnn(C)c4)nc3n2)c1` [Compound 290] were 3.55 nM, 4.47 nM, 12.9 nM, > 10000 nM and 7.06.
